Data taken from patent publication US20140031217A1, “HERBICIDAL COMPOSITIONS COMPRISING 4-AMINO-3-CHLORO-5-FLUORO-6-(4-CHLORO-2-FLUORO-3-METHOXYPHENYL)PYRIDINE-2-CARBOXYLIC ACID OR A DERIVATIVE THEREOF AND AUXIN TRANSPORT INHIBITORS” (DOW AGROSCIENCES LLC, priority 2012, published 2014).

Assays:
ECHCG = test: Postemergence foliar-applied greenhouse weed control, ECHCG; assay type: in vivo, Echinochloa crusgalli (L.) Beauv.; conditions: 20 DAA
Source text: Seeds or nutlets of the desired test plant species were planted in a soil matrix prepared by mixing a loam or sandy loam soil (e.g., 28.6 percent silt, 18.8 percent clay, and 52.6 percent sand, with a pH of about 5.8 and an organic matter content of about 1.8 percent) and calcareous grit in an 80 to 20 ratio. The soil matrix was contained in plastic pots with a volume of 1 quart and a surface area of 83.6 square centimeters (cm^2). When required to ensure good germination and healthy plants, a fungicide treatment and/or other chemical or physical treatment was applied. The plants were grown for 8-22 days in a greenhouse with an approximate 14 h photoperiod which was maintained at about 29° C. during the day and 26° C. during the night. Nutrients (Peters Excel® 15-5-15 5-Ca 2-Mg and iron chelate) were applied in the irrigation solution as needed and water was added on a regular basis. Supplemental lighting was provided with overhead metal halide 1000-Watt lamps as necessary. The plants were employed for testing when they reached the first through fourth true leaf stage.
Treatments consisted of the acid or esters of 4-amino-3-chloro-5-fluoro-6-(4-chloro-2-fluoro-3-methoxy-phenyl) pyridine-2-carboxylic acid (Compound A), each formulated as an SC (suspension concentrate), and various herbicidal components alone and in combination. Forms of compound A were applied on an acid equivalent basis.
Other herbicidal components were applied on an active ingredient basis and included auxin transport inhibiting (ATI) herbicides chlorflurenol (technical material), chlorflurenol-methyl (technical material), diflufenzopyr (technical material), diflufenzopyr sodium (technical material), flurenol-methyl (technical material) and naptalam (technical material).
Treatment requirements were calculated based upon the rates being tested, the concentration of active ingredient or acid equivalent in the formulation, and a 12 mL application volume at a rate of 187 L/ha.
For treatments comprised of formulated and technical compounds, weighed amounts of the technical materials were placed individually in 25 mL glass vials and dissolved in a volume of 97:3 v/v acetone/DMSO to obtain 12× stock solutions, and measured amounts of the formulated compounds were placed individually in 25 mL glass vials and diluted in a volume of 1.5% (v/v) crop oil concentrate or water to obtain 12× stock solutions. […] Application solutions were prepared by adding an appropriate amount of each stock solution (e.g., 1 mL) and diluted to the appropriate final concentrations with the addition of an appropriate amount of an aqueous mixture of 1.5% (v/v) crop oil concentrate so that the final spray solutions contained 1.25% (v/v) crop oil concentrate. When required, additional water and/or 97:3 v/v acetone/DMSO was added to individual application solutions so that the final acetone and DMSO concentrations of the application solutions being compared were 8.1% and 0.25%, respectively.
All stock solutions and applications solutions were visually inspected for compound compatibility prior to application. Spray solutions were applied to the plant material with an overhead Mandel track sprayer equipped with an 8002E nozzle calibrated to deliver 187 L/ha over an application area of 0.503 m^2 at a spray height of 18 to 20 inches (46 to 50 cm) above average plant canopy height. Control plants were sprayed in the same manner with the solvent blank.
The treated plants and control plants were placed in a greenhouse as described above and watered by sub-irrigation to prevent wash-off of the test compounds. After approximately 3 weeks, the condition of the test plants as compared with that of the untreated plants was determined visually and scored on a scale of 0 to 100 percent where 0 corresponds to no injury or growth inhibition and 100 corresponds to complete kill. […]

SCPMA = test: In-water applied (paddy) greenhouse weed control, SCPMA; assay type: in vivo
Experimental: Weed seeds or nutlets of the desired test plant species were planted in puddled soil (mud) prepared by mixing a shredded, non-sterilized mineral soil (50.5 percent silt, 25.5 percent clay, and 24 percent sand, with a pH of about 7.6 and an organic matter content of about 2.9 percent) and water at a 1:1 volumetric ratio. The prepared mud was dispensed in 365 mL aliquots into 16-ounce (oz.) non-perforated plastic pots with a surface area of 86.59 square centimeters (cm^2) leaving a headspace of 3 centimeters (cm) in each pot. Mud was allowed to dry overnight prior to planting or transplanting. Rice seeds were planted in Sun Gro MetroMix® 306 planting mixture, which typically has a pH of 6.0 to 6.8 and an organic matter content of about 30 percent, in plastic plug trays. Seedlings at the second or third leaf stage of growth were transplanted into 840 mL of mud contained in 32-oz. non-perforated plastic pots with a surface area of 86.59 cm^2 4 days prior to herbicide application. The paddy was created by filling the headspace of the pots with 2.5 to 3 cm of water. When required to ensure good germination and healthy plants, a fungicide treatment and/or other chemical or physical treatment was applied. The plants were grown for 4-22 days in a greenhouse with an approximate 14 h photoperiod which was maintained at about 29′C during the day and 26° C. during the night. Nutrients were added as Osmocote® (19:6:12, N:P:K+minor nutrients) at 2 g per 16-oz. pot and 4 g per 960-mL 32-oz. pot. Water was added on a regular basis to maintain the paddy flood, and supplemental lighting was provided with overhead metal halide 1000-Watt lamps as necessary. The plants were employed for testing when they reached the second or third true leaf stage.
Treatments consisted of the acid or esters of 4-amino-3-chloro-5-fluoro-6-(4-chloro-2-fluoro-3-methoxy-phenyl)pyridine-2-carboxylic acid (compound A) each formulated as an SC and various herbicidal components alone and in combination. Forms of compound A were applied on an acid equivalent basis.
Other herbicidal components were applied on an active ingredient basis and included auxin transport inhibiting (ATI) herbicides chlorflurenol-methyl (technical material), chlorflurenol (technical material), diflufenzopyr (technical material), dilfufenzopyr sodium (technical material), flurenol-methyl (technical material,) and naptalam (technical material).
Treatment requirements for each compound or herbicidal component were calculated based upon the rates being tested, the concentration of active ingredient or acid equivalent in the formulation, an application volume of 2 mL per component per pot, and an application area of 86.59 cm^2 per pot.
For formulated compounds, a measured amount was placed in an individual 100 or 200 mL glass vial and was dissolved in a volume of 1.25% (v/v) Agri-Dex® crop oil concentrate to obtain application solutions.
For technical grade compounds, a weighed amount was placed in an individual 100 to 200 mL glass vial and was dissolved in a volume of acetone to obtain concentrated stock solutions. […] The concentrated stock solutions obtained were diluted with an equivalent volume of an aqueous mixture containing 2.5% (v/v) crop oil concentrate so that the final application solutions contained 1.25% (v/v) crop oil concentrate.
Applications were made by injecting with a pipetter appropriate amounts of the application solutions, individually and sequentially, into the aqueous layer of the paddy. Control plants were treated in the same manner with the solvent blank. Applications were made so that all treated plant material received the same concentrations of acetone and crop oil concentrate.
The treated plants and control plants were placed in a greenhouse as described above and water was added as needed to maintain a paddy flood. […]

Row | SMILES | Visual Weed Control (%) Obs (ECHCG; 4.38 gae/ha) [%] | Visual Weed Control (%) Obs (ECHCG; 8.75 gae/ha) [%] | Visual Weed Control (%) Obs (SCPMA; 20 DAA, 8.75 gae/ha) [%] | Visual Weed Control (%) Obs (SCPMA; 20 DAA, 17.5 gae/ha) [%] | Visual Weed Control (%) Obs (SCPMA; 20 DAA, 35 gae/ha) [%] | Visual Weed Control (%) Obs (SCPMA; 22 DAA, 8.75 gae/ha) [%] | Visual Weed Control (%) Obs (SCPMA; 22 DAA, 17.5 gae/ha) [%] | Visual Weed Control (%) Obs (SCPMA; 22 DAA, 35 gae/ha) [%] | Visual Weed Control (%) Obs (SCPMA; 20 DAA, 4.38 gae/ha) [%]
1 | COc1c(Cl)ccc(-c2nc(C(=O)O)c(Cl)c(N)c2F)c1F [Compound A Acid, 4-amino-3-chloro-6-(4-chloro-2-fluoro-3-methoxyphenyl)-5-fluoropyridine-2-carboxylic acid] | 60 | 80 | 0 | 0 | 30 | 0 | 0 | 0 | –
2 | COc1c(Cl)ccc(-c2nc(C(=O)OCc3ccccc3)c(Cl)c(N)c2F)c1F [Compound A Benzyl Ester] | 60 | – | 0 | 0 | – | 0 | 0 | – | 0
